The text below walks through data of ChEMBL document CHEMBL1139343, “Pharmacophore guided discovery of small-molecule human apurinic/apyrimidinic endonuclease 1 inhibitors” (J Med Chem, 2009).

Experiment [1] is described as follows: Inhibition of exonuclase 3.
A short description of experiment [2]: Inhibition of endonuclease 4.
Experiment [3] addresses DNA repair nuclease/redox regulator APEX1 (Homo sapiens, UniProt P27695). Kind of experiment: Inhibition of purified human recombinant APE1 expressed in Escherichia coli M15 cells.
The nature of experiment [4]: Selectivity index, IC50 for human recombinant APE1 over exonuclase 3.
In experiment [5] the target is Human immunodeficiency virus type 1 integrase (Human immunodeficiency virus 1, UniProt Q7ZJM1). As to the kind of experiment: Inhibition of HIV1 integrase.

Molecules are shown by their SMILES.

Chain of Human immunodeficiency virus type 1 integrase (Q7ZJM1 whole entry): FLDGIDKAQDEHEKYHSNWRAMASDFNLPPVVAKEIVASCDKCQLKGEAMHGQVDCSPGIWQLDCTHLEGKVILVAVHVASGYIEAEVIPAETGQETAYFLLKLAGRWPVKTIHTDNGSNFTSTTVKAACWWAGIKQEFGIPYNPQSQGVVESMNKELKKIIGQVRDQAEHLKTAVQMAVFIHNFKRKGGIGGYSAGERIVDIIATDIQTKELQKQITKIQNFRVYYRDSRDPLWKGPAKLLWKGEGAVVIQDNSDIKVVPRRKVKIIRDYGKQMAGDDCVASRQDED
Chain of DNA repair nuclease/redox regulator APEX1 (P27695 whole entry): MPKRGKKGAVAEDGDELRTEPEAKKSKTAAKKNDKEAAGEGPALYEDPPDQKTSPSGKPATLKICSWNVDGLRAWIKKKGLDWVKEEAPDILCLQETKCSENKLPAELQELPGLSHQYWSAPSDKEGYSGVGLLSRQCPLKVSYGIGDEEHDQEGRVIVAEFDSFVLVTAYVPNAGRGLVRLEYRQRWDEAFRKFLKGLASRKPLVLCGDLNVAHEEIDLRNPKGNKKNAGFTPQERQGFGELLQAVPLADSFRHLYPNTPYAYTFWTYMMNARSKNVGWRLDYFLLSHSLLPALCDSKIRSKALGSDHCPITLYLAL

With `O=C(O)CCc1ccc(-c2ccc(Cl)cc2)n1CC(=O)O`, the IC50 in experiment [1] was greater than 100 µM; in experiment [2], greater than 100 µM; in experiment [3], 4 µM; in experiment [5], greater than 100 µM. In addition, the Ratio IC50 in experiment [4] is greater than 25.

`O=C(O)Cc1cc(S(=O)(=O)c2ccc(Sc3ccc(C(=O)O)cc3)cc2)ccc1C(=O)O`: the IC50 in experiment [1] is 90 µM; in experiment [2] it was greater than 100 µM; in experiment [3] it was 4 µM; in experiment [5] it was greater than 100 µM. The Ratio IC50 in experiment [4] came to 23.

`O=C(O)CCN1C(=O)/C(=C2/C(=O)N(CC(=O)O)c3ccccc32)SC1=S`: the IC50 in experiment [1] was 60 µM; in experiment [2] it was greater than 100 µM; in experiment [3] it was 6 µM; in experiment [5] it was greater than 100 µM. Further, the Ratio IC50 in experiment [4] amounted to 10.

In the case of `Cc1oc(C)c(C(=O)O)c1COc1ccccc1C(=O)O`, the IC50 was 98 µM in experiment [1], greater than 100 µM in experiment [2], 6 µM in experiment [3] and greater than 100 µM in experiment [5]. The Ratio IC50 in experiment [4] turned out to be 16.

For `O=C(O)Cn1c(CCCCc2nc3ccccc3n2CC(=O)O)nc2ccccc21`, the IC50 in experiment [1] is 80 µM; in experiment [2], greater than 100 µM; in experiment [3], 4 µM; in experiment [5], greater than 100 µM. For the same compound, the Ratio IC50 in experiment [4] was determined as 20.

On to `Cc1cc(C(=O)O)c(CSCc2cc(C(=O)O)oc2C)o1`, for which the 50% inhibitory concentration (IC50) in experiment [3] was determined as 20 µM.

For the compound `COc1cc(S(=O)(=O)N(Cc2ccc(Br)cc2)Cc2ccco2)ccc1-n1cnnn1`, the IC50 in experiment [3] was greater than 100 µM.

Consider `CCc1nnc(NC(=O)c2cc(S(=O)(=O)N(CC)CC)ccc2Cl)s1`, for which the 50% inhibitory concentration (IC50) in experiment [3] was greater than 100 µM.

In the case of `O=S(=O)(NCc1ccccc1)c1ccc(S(=O)(=O)N(Cc2ccc(Cl)cc2)Cc2ccco2)cc1`, the IC50 in experiment [3] is greater than 100 µM.

For the compound `CCc1cc2c(=O)c(-c3nc4ccccc4s3)c(C)oc2cc1OS(C)(=O)=O`, in experiment [3], the IC50 is greater than 100 µM.

Consider `O=C(Nc1nnc(CCS(=O)(=O)c2ccc3ccccc3c2)s1)c1ccccc1`, for which, in experiment [3], the half-inhibitory concentration (IC50) was greater than 100 µM.

Consider `O=C(c1ccc2c(c1)C(=O)N(c1ccccc1C(=O)O)C2=O)c1ccc2c(c1)C(=O)N(c1ccccc1C(=O)O)C2=O`, for which the IC50 in experiment [3] was determined as 8 µM.

For the compound `COC(=O)COc1ccc(S(=O)(=O)N2CCCCC2)cc1C`, the IC50 in experiment [3] is greater than 100 µM.

With `Cc1oc(CSCC2CCCO2)cc1C(=O)O` (stereo not given), in experiment [3], the IC50 was determined as 16 µM.

For `O=S(=O)(O)c1cc(O)c2c(S(=O)(=O)O)cc(S(=O)(=O)O)cc2c1`, in experiment [3], the IC50 was greater than 100 µM.

For the compound `CCCS(=O)(=O)N1CCCC(c2nc(-c3ccc(C(C)C)cc3)no2)C1` (stereo not given), the IC50 in experiment [3] is greater than 100 µM.

As to `O=C(O)CN1C(=O)/C(=C2\SC(=S)N(C(Cc3ccccc3)C(=O)O)C2=O)c2ccccc21` (stereo not given), in experiment [3], the IC50 stood at 3 µM.

As to `O=C(Cn1cc(C(=O)c2ccco2)c2ccccc21)NCc1cccnc1`, the IC50 in experiment [3] is greater than 100 µM.

Consider `Cc1cc(C)nc(SCc2nnc(SCC(=O)N3CCCCC3)n2-c2ccccc2)n1`, for which, in experiment [3], the IC50 is greater than 100 µM.

As to `Cc1c(OS(=O)(=O)c2ccccc2)cccc1OS(=O)(=O)c1ccccc1`, in experiment [3], the half-inhibitory concentration (IC50) was greater than 100 µM.

Take `CCNC(=O)c1cc(S(=O)(=O)NCCC(=O)O)c(C)s1`: the IC50 in experiment [3] was greater than 100 µM.

As to `O=P(O)(O)c1ccccc1OCCOc1ccccc1P(=O)(O)O`, the IC50 in experiment [3] was greater than 100 µM.

As for `O=C(O)CN1C(=O)/C(=C2/C(=O)N(CC(=O)O)c3ccccc32)SC1=S`, in experiment [3], the half-maximal inhibitory concentration (IC50) amounted to 13 µM.

Turning to `CS(=O)(=O)NCc1nnc(SCC(=O)N2CCCCCC2)n1-c1ccc(F)cc1`, the IC50 in experiment [3] was greater than 100 µM.

Take `CCNC(=O)c1cc(S(=O)(=O)NCc2ccc(C(=O)O)cc2)c(C)s1`: the concentration for half-maximal inhibition (IC50) in experiment [3] was greater than 100 µM.

Consider `O=C(O)CCC(=O)NC(Cc1ccccc1)C(=O)O` (stereo not given), for which, in experiment [3], the IC50 came out at 40 µM.

For `C=CCSc1nnc(-c2ccc(NS(C)(=O)=O)cc2)n1C`, the IC50 in experiment [3] is greater than 100 µM.

`COc1cc(C=C2C(=O)OC3(CCCC3)OC2=O)cc(I)c1OCc1ccccc1C#N`: the IC50 in experiment [3] is greater than 100 µM.

`COc1cc(-c2nnn[nH]2)ccc1OCC(=O)O`: in experiment [3], the IC50 was greater than 100 µM.

`O=C(O)CC(CC(=O)Nc1nnn[nH]1)c1ccccc1` (stereo not given): the IC50 in experiment [3] is 30 µM.

Regarding `O=C(O)CSc1ccc(C(=O)O)cc1[N+](=O)[O-]`, in experiment [3], the IC50 amounted to 100 µM.

Turning to `O=C(O)c1cccc(NC(=O)C2CCCCC2C(=O)O)c1` (stereo not given), the IC50 in experiment [3] stood at 55 µM.

For the compound `COc1ccccc1C(=O)NCC(C)(C)CNC1=NS(=O)(=O)c2ccccc21`, in experiment [3], the IC50 was greater than 100 µM.

For `CCOC(=O)C(CCc1nn[nH]n1)(CCc1nn[nH]n1)C(=O)OCC`, in experiment [3], the IC50 is greater than 100 µM.

For the compound `O=C(O)CCCNc1n[nH]c(=O)[nH]c1=O`, the IC50 in experiment [3] was greater than 100 µM.

Regarding `Cc1ccc(-c2nnc3c4ccccc4c(C)nn23)cc1S(=O)(=O)N1CCOCC1`, in experiment [3], the IC50 was greater than 100 µM.

`CCc1nnc(NS(=O)(=O)c2ccc(NC(=O)CCC(=O)O)cc2)s1`: the IC50 in experiment [3] was 80 µM.

In the case of `Cc1cc(S(=O)(=O)NC2CCCC2)ccc1-n1cnnn1`, in experiment [3], the IC50 is greater than 100 µM.

For `O=C(O)CCn1c(=O)oc2cc(S(=O)(=O)O)ccc21`, the IC50 in experiment [3] worked out at 80 µM.

Turning to `O=C(O)c1cccc(Nc2nc3ccccc3nc2NS(=O)(=O)c2cccc([N+](=O)[O-])c2)c1`, the IC50 in experiment [3] was greater than 100 µM.

For `CCOc1cc(-n2cnnn2)c(OCC)cc1NC(=O)c1cc2cccc(OC)c2oc1=O`, the IC50 in experiment [3] was greater than 100 µM.

Take `Cc1ccc(Cn2nnc3c(O)nc(C4CCCN(S(=O)(=O)c5ccccc5)C4)nc32)cc1` (stereo not given): in experiment [3], the IC50 is greater than 100 µM.

In the case of `O=C(O)CCc1nc2cc(C(=O)O)ccc2[nH]1`, the IC50 in experiment [3] is 80 µM.

On to `CCN1/C(=C2/SC(=S)N(NC(C)=O)C2=O)Sc2ccc(S(=O)(=O)C(F)(F)F)cc21`, for which the IC50 in experiment [3] is greater than 100 µM.

For the compound `Cc1cc(S(=O)(=O)N2CCOCC2)ccc1OCC(=O)N1CCCC1`, in experiment [3], the IC50 is greater than 100 µM.

As for `CN(c1ccc(C(=O)O)cc1)S(=O)(=O)c1cccs1`, the IC50 in experiment [3] is greater than 100 µM.

For `CS(=O)(=O)Nc1nc(CC(=O)O)cs1`, the IC50 in experiment [3] is greater than 100 µM.

In the case of `O=C(O)CN1C(=O)/C(=C\c2ccc(-c3cccc(C(=O)O)c3)o2)SC1=S`, the IC50 in experiment [1] was 70 µM; in experiment [2], greater than 100 µM; in experiment [3], 6 µM; in experiment [5] it was greater than 100 µM. For the same compound, in experiment [4], the Ratio IC50 came out at 12.

With `CCN(c1ccc(C(O)(C(=O)OC)C(F)(F)F)cc1)S(=O)(=O)c1ccc(C)cc1` (stereo not given), the IC50 in experiment [3] is greater than 100 µM.

`C=CCN1C(=O)C(Cc2ccccc2)S/C1=N/c1ccc(C(=O)O)cc1` (stereo not given): the IC50 in experiment [3] was 100 µM.

In the case of `CC1([N+](=O)[O-])CN(CCC(=O)O)CN(CCC(=O)O)C1`, in experiment [3], the IC50 came to 50 µM.

As for `CC(C)c1nnc(NC(=O)C2CCCN2S(=O)(=O)c2ccc(F)cc2)s1` (stereo not given), in experiment [3], the IC50 is greater than 100 µM.

Regarding `CC(C)(C)NS(=O)(=O)c1ccc2oc3ccc(S(=O)(=O)NC(C)(C)C)cc3c2c1`, in experiment [3], the IC50 is greater than 100 µM.

For the compound `COc1ccc(/C=C/C(=O)O)cc1S(=O)(=O)NC1CCS(=O)(=O)C1` (stereo not given), in experiment [3], the IC50 was greater than 100 µM.

For `C=CCn1c(Cc2ccccc2)nnc1SCC(=O)Nc1nnc(C)s1`, the IC50 in experiment [3] is greater than 100 µM.

Consider `O=S(=O)(c1cc(S(=O)(=O)N2CCOCC2)c2n[n+]3c4cc(S(=O)(=O)N5CCOCC5)cc(S(=O)(=O)N5CCOCC5)c4[n-]n3c2c1)N1CCOCC1`, for which the IC50 in experiment [3] was greater than 100 µM.

On to `CCn1c(SCCN2CCCC2)nnc1C1CCCN(S(C)(=O)=O)C1` (stereo not given), for which the 50% inhibitory concentration (IC50) in experiment [3] is greater than 100 µM.

On to `Cc1ccccc1NC(=O)c1cccc(NC(=O)CCC(=O)O)c1`, for which, in experiment [3], the IC50 came to 35 µM.

Take `COC(=O)CSc1nnc(-c2ccc(NS(C)(=O)=O)cc2)n1C`: in experiment [3], the IC50 is greater than 100 µM.

`Cn1c(SCC(N)=O)nnc1-c1ccc(NS(C)(=O)=O)cc1`: the IC50 in experiment [3] is greater than 100 µM.

Regarding `Cc1ccc(-c2noc(CNC(=O)CN(C)S(=O)(=O)c3ccc4ccccc4c3)n2)cc1`, the IC50 in experiment [3] is greater than 100 µM.

Turning to `NC(=O)CSc1nnc(-c2ccc(S(=O)(=O)N3CCCCC3)cc2)n1Cc1ccccc1`, the IC50 in experiment [3] is greater than 100 µM.

Take `O=S(=O)(c1ccc(OC(F)(F)F)cc1)N1CCCC(c2nc(O)c3nnn(Cc4ccccc4Cl)c3n2)C1` (stereo not given): in experiment [3], the IC50 is greater than 100 µM.

For `COc1ccc(S(=O)(=O)N2CCC(C(=O)O)CC2)cc1C(=O)O`, in experiment [3], the IC50 came to 30 µM.

Consider `CCOC(=O)C(=Cc1c[nH]c2ccc(S(=O)(=O)N(C)C)cc12)C(=O)OCC`, for which, in experiment [3], the IC50 was greater than 100 µM.

`O=C(O)c1cccc(S(=O)(=O)N2CCCC(c3nc(O)c4nnn(Cc5ccc(F)cc5)c4n3)C2)c1` (stereo not given): the IC50 in experiment [3] came to 33 µM.

`Cc1cc(NC(=O)CCC(=O)O)ccc1NC(=O)c1cccs1`: the IC50 in experiment [3] turned out to be 100 µM.

As to `Cc1ccc(S(=O)(=O)CCc2nnc(NC(=O)CCc3ccccc3)s2)cc1`, the IC50 in experiment [3] is greater than 100 µM.

In the case of `Cn1c(CCNS(=O)(=O)c2ccccc2)nnc1SCc1cccnc1`, the IC50 in experiment [3] was greater than 100 µM.

In the case of `O=C(O)CCS(=O)(=O)CCC(=O)O`, the IC50 in experiment [3] came out at 40 µM.

Regarding `CCN(CC)S(=O)(=O)c1cccc(C(=O)Nc2ccccc2C(=O)O)c1`, the IC50 in experiment [3] was 100 µM.
